In ChEMBL document CHEMBL5223171, “Synthesis and discovery of Baylis-Hillman adducts as potent and selective thioredoxin reductase inhibitors for cancer treatment” (Bioorg Med Chem, 2023):

Experiments:
[1] = system: HeLa; assay: Cytotoxicity against human HeLa cells assessed as reduction in cell viability incubated for 72 hrs by MTT assay; format: functional, cell-based
[2] = system: HepG2; assay: Cytotoxicity against human HepG2 cells assessed as reduction in cell viability incubated for 72 hrs by MTT assay; format: functional, cell-based; conditions: HepG2, 72 h
[3] = system: A549; assay: Cytotoxicity against human A549 cells assessed as reduction in cell viability incubated for 72 hrs by MTT assay; format: functional, cell-based; conditions: A549, 72 h
[4] = system: HepG2; assay: Induction of cell cycle arrest in human HepG2 cells assessed as accumulation at S phase at 10 uM incubated for 48 hrs by propidium iodide staining based flow cytometry (reference value: 20.55%); format: functional
[5] = system: HepG2; assay: Inhibition of TrxR in human HepG2 cells at 2.5 to 10 uM incubated for 52 hrs by TRFS-green staining based fluorescence microscopic analysis; format: cell-based; conditions: dose 2.5-10 µM
[6] = species: Homo sapiens; assay: Inhibition of recombinant TrxR (unknown origin) using DTNB as substrate at 10 to 40 uM incubated for 2 hrs in presence of NADPH; conditions: dose 10-40 µM
[7] = system: HepG2; assay: Inhibition of TrxR in human HepG2 cells at 2.5 to 10 uM incubated for 48 hrs by NBL-SS probe based assay; format: cell-based; conditions: dose 2.5-10 µM
[8] = molecular target: Thioredoxin reductase (Escherichia coli (strain K12), UniProt P0A9P4); assay: Inhibition of Escherichia coil TrxR incubated for 2 hrs in presence of DTT and insulin
Chain of Thioredoxin reductase (P0A9P4 whole entry): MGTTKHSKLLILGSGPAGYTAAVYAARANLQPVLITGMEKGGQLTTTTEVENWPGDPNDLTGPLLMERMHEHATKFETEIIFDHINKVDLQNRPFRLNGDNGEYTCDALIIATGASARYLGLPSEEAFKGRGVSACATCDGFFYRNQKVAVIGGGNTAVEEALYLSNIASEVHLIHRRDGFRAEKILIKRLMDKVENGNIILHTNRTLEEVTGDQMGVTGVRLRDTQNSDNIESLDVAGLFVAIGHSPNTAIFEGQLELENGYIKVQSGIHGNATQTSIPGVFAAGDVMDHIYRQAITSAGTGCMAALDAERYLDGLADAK

[9] = Inhibition of recombinant TrxR (unknown origin) using DTNB as substrate incubated for 2 hrs in presence of NADPH; set-up: species or system Homo sapiens
[10] = system: HepG2; assay: Induction of cell cycle arrest in human HepG2 cells assessed as accumulation at G1 phase at 10 uM incubated for 48 hrs by propidium iodide staining based flow cytometry (reference value: 64.6%); format: functional
[11] = system: HepG2; assay: Inhibition of colony formation in human HepG2 cells assessed as reduction in colony number at 5 to 10 uM incubated for 5 days by crystal violet staining assay; format: functional, cell-based; conditions: dose 5-10 µM, time 5.0 day
[12] = system: HepG2; assay: Inhibition of cell migration in human HepG2 cells at 5 to 10 uM incubated upto 48 hrs by wound healing assay; format: functional, cell-based; conditions: dose 5-10 µM
[13] = system: HepG2; assay: Inhibition of colony formation in human HepG2 cells at 5 uM incubated for 5 days by crystal violet staining assay; format: functional; conditions: HepG2, 120 h, time 5 day
[14] = system: HepG2; assay: Induction of cell cycle arrest in human HepG2 cells assessed as accumulation at G2 phase at 10 uM incubated for 48 hrs by propidium iodide staining based flow cytometry (reference value: 14.85%); format: functional
[15] = system: HepG2; assay: Induction of ROS generation in human HepG2 cells assessed as increase in intracellular ROS level at 2.5 to 10 uM incubated for 48 hrs by DCFH-DA staining based fluorescence microscopy; format: functional, cell-based; conditions: dose 2.5-10 µM
[16] = molecular target: Thioredoxin reductase (Escherichia coli (strain K12)) (UniProt P0A9P4); assay: Inhibition of Escherichia coil TrxR at 10 to 40 uM incubated for 2 hrs in presence of DTT and insulin; conditions: dose 10-40 µM
Chain of Thioredoxin reductase (Escherichia coli (strain K12)) (P0A9P4 whole entry): as above

Row | Structure (SMILES) | IC50 [1] [µM] | IC50 [2] [µM] | IC50 [3] [µM] | other results
1 | C=C(COC(=O)Nc1ccc(C)cc1)C(=O)NC(C(=O)NCC(=O)OCC)c1ccc(Br)cc1 (configuration not stated) | > 20 | 18.8 | > 20 | –
2 | C=C(COC(=O)Nc1ccc(C)cc1)C(=O)NC(C(=O)NCC(=O)OCC)c1ccc(F)cc1 (configuration not stated) | > 20 | 17.6 | > 20 | –
3 | C=C(COC(=O)Nc1ccc(C)cc1)C(=O)NC(C(=O)NCC(=O)OCC)c1ccc(Cl)cc1 (configuration not stated) | > 20 | > 20 | > 20 | –
4 | C=C(COC(=O)Nc1ccc(C)cc1)C(=O)NC(C(=O)NC(C)(C)C)c1ccc(Br)cc1 (configuration not stated) | > 20 | > 20 | > 20 | –
5 | C=C(COC(=O)Nc1ccc(C)cc1)C(=O)NC(C(=O)NCC(=O)OCC)c1ccccc1 (configuration not stated) | > 20 | 11.5 | > 20 | –
6 | C=C(COC(=O)Nc1ccc(C)cc1)C(=O)NC(CC(C)C)C(=O)NCC(=O)OCC (configuration not stated) | > 20 | 4.7 | > 20 | Activity [4]: 17.74%; inhibition [5]: Dose-Dependent Effect; inhibition [6]: Dose-Dependent Effect; inhibition [7]: Dose-Dependent Effect; IC50 [8]: 16.6 µM; IC50 [9]: 4.18 µM; Activity [10]: 72.24%; inhibition [11]: Dose-Dependent Effect; inhibition [12]: Dose-Dependent Effect; inhibition at 5 µM [13]: 67.1%; Activity [14]: 10.02%; Activity [15]: Dose-Dependent Effect; inhibition [16]: Dose-Dependent Effect
7 | C=C(COC(=O)Nc1ccc(C)cc1)C(=O)NC(C(=O)NC(C)(C)C)c1ccc(Cl)cc1Cl (configuration not stated) | > 20 | > 20 | > 20 | –
8 | C=C(COC(=O)Nc1ccc(C)cc1)C(=O)NC(C(=O)NC(C)(C)C)c1ccc(F)cc1 (configuration not stated) | > 20 | > 20 | > 20 | –
9 | C=C(COC(=O)Nc1ccc(C)cc1)C(=O)NC(C(=O)NCC(=O)OCC)c1ccc(Cl)cc1Cl (configuration not stated) | > 20 | > 20 | > 20 | –
10 | CCC(C)SSc1ncc[nH]1 (configuration not stated) [PX-12] | 9 | 12 | > 20 | –
11 | C=C(COC(=O)Nc1ccc(C)cc1)C(=O)NC(C(=O)NC(C)(C)C)c1ccc(Cl)cc1 (configuration not stated) | > 20 | 11.6 | > 20 | –
12 | C=C(COC(=O)Nc1ccc(C)cc1)C(=O)NC(C(=O)NC(C)(C)C)c1ccccc1 (configuration not stated) | > 20 | > 20 | > 20 | –
13 | C=C(COC(=O)Nc1ccc(C)cc1)C(=O)NC(CC(C)C)C(=O)NC(C)(C)C (configuration not stated) | > 20 | > 20 | > 20 | –
